{"source": "patent US10533225B2", "about": "“Methods and systems for monitoring, diagnosing, and treating chronic obstructive pulmonary disease” (Trustees of Boston University, priority 2012, dated 2020)", "origin": "cited, not measured here", "key": {"[1]": {"system": "ER stress markers and airspace", "conditions": "mice, administration"}, "[2]": {"system": "PI3K pathway activation", "conditions": "smokers with airway epithelial cell dysplasia"}}, "data": [{"smiles": "C=CC=O", "note": "[acrolein]", "values": [{"measurement": "ER stress markers", "setting": "[1]", "value": "increase in ER stress markers"}, {"measurement": "airspace change", "setting": "[1]", "value": "airspace enlargement"}]}, {"smiles": "O[C@H]1[C@H](O)[C@@H](O)[C@H](O)[C@@H](O)[C@H]1O", "note": "[myo-inositol]", "values": [{"measurement": "airway PI3K pathway activation", "setting": "[2]", "value": "reversible"}]}]}
